Earlier results, collected in patent publication US20110290909A1, “MULTI-COMPONENT INSECT ATTRACTANT” (priority 2006, published 2011).

Columns and labels:
male melon flies = settings: cue lure compared with raspberry ketone
male melon fruit flies = settings: in vivo

| Compound | effects on mating success (male melon flies) | effectiveness as chemical attractant for male melon fruit flies (male melon fruit flies) |
| --- | --- | --- |
| CC(=O)CCc1ccc(OC(C)=O)cc1 [cue lure] | similar, short-lasting effects |  |
| CC(=O)CCc1ccc(O)cc1 [raspberry ketone] | similar, short-lasting effects | very effective chemical attractant |
